Among the data in ChEMBL document CHEMBL3507680, “University of Dundee, Gates Library screen for HepG2 cell viability” are cytotoxicity values, retold here.

A short description of the data set: Human HepG2 cell viability assay in 384 well format. Format: toxicity, cell-based. Also noted: dose 125 nL, time 70.5 hour; cytotoxicity at 70.5 h: concentration not given beside the values. As to conditions: HepG2 cells, read-out: Inhibition.

As for `CCOC(CC)C(=O)NCCC(=O)N1CCN(c2ncccn2)CC1` (centres undefined), the cytotoxicity at 70.5 h was -18.6%.
For the compound `Cc1noc(C(C)N2CCN(CC(=O)N3CCOCC3)CC2)n1` (centres undefined), the cytotoxicity at 70.5 h came out at 24%.
In the case of `COCCCN(CCOC)C(=O)Nc1ccc(C)cc1C`, the cytotoxicity at 70.5 h came to 0.857%.
For `COCCCN(CCOC)C(=O)Nc1ccccc1Br` the value was -15.2%; for `CC(C)(C)c1n[nH]c(C2CN(C(=O)c3cc(C4CC4)on3)CCO2)n1` (centres undefined), 28.3%; for `CC(C)c1nc(C(=O)N2CCOCC2CC(=O)c2ccco2)c[nH]1` (centres undefined), -14.6%.
Under `CN(Cc1ccc(Cl)s1)C1CCCN(c2cccnn2)C1` (centres undefined) stands -11.8%; under `Cc1cnn(CC2CCCCN2CC(=O)NCc2ccccn2)c1` (centres undefined), -11%; under `CSCCC(=O)N1CCCC1c1ccsc1` (centres undefined), 13.3%.
`CCc1nnc2n1CC(CNCc1ccncc1)CC2` (centres undefined): the cytotoxicity at 70.5 h is -6.39%.
Consider `CCOc1ncccc1NC(=O)c1cc2c(s1)CCC2`, for which the cytotoxicity at 70.5 h was found to be 1.84%.
Under `COc1ccc(CN(C)C(=O)CCc2c(C)nc(C)[nH]c2=O)cc1OC` stands -7.96%.
Turning to `COc1cccc(NC(=O)N(CCO)Cc2ccsc2)c1`, the cytotoxicity at 70.5 h was -3.88%.
Take `CC(C)(C(=O)NCC1CC1)c1ccccc1F`: the cytotoxicity at 70.5 h was -4.02%.
As to `Cc1cnn(CC(C)NCc2nc(-c3cccnc3)no2)c1` (centres undefined), the cytotoxicity at 70.5 h came out at 3.38%.
Turning to `CCc1ccc(C(=O)N2CCCC(n3cncn3)C2)o1` (centres undefined), the cytotoxicity at 70.5 h is -2.71%.
With `O=C(c1ccc(Br)o1)N1CCCC(n2cncn2)C1` (centres undefined), the cytotoxicity at 70.5 h is -3.18%.
Under `NC(=O)CSCCC(=O)N1CCCC1c1ccsc1` (centres undefined) stands -6.66%; under `CCCc1n[nH]c(C2CN(C(=O)CCCn3cccn3)CCO2)n1` (centres undefined), -7.13%; under `CCCc1n[nH]c(C2CN(CCn3cccn3)CCO2)n1` (centres undefined), -6.79%.
Turning to `CCC(CC)c1cc(C(=O)N2CCCC(n3cncn3)C2)on1` (centres undefined), the cytotoxicity at 70.5 h is -1.84%.
For `c1cnc(N2CCCC3(COCCN(c4nncs4)C3)C2)cn1` (centres undefined), the cytotoxicity at 70.5 h is -6.49%.
For the compound `O=C1CC(c2ccccc2)C2(CCN(Cc3ccncc3)CC2)N1` (centres undefined), the cytotoxicity at 70.5 h was -12.7%.
Turning to `CN(C)C(=O)[C@@H]1C[C@@H]2CCN(Cc3ccncc3)C[C@@H]2O1`, the cytotoxicity at 70.5 h is -11.6%.
On to `O=C(Nc1cccnc1)[C@@H]1C[C@H]2OCC[C@H]2N(Cc2nccs2)C1`, for which the cytotoxicity at 70.5 h was -6.06%.
For `Cc1ccc(CN2C[C@@H](C(=O)Nc3cccnc3)C[C@H]3OCC[C@H]32)o1`, the cytotoxicity at 70.5 h came out at 21.9%.
Under `CN(C)C(=O)COCC1CN(Cc2ccoc2)Cc2nnn(C)c21` (centres undefined) stands 15%; under `Cn1nc(CN2CCCCC2)c2c1CN(C(=O)c1cccc(Cl)c1)C2`, 40.4%; under `O=C1COC2(CCN(C(=O)[C@H]3CCCO3)CC2)CN1Cc1ccccn1`, 17.4%.
For `Cn1nc(CN2CCCCC2)c2c1CN(C(=O)c1ccccc1)C2` the value was 23.3%; for `Cc1ccc(CNCC2Cn3nnc(-c4cnn(C)c4)c3CO2)o1` (centres undefined), 15.6%; for `c1cc(-c2nnn3c2COC(CNCc2nccs2)C3)ccn1` (centres undefined), -0.24%.
`Cn1cccc1C(=O)N1Cc2c(CN3CCCCC3)nn(C)c2C1`: the cytotoxicity at 70.5 h was 0.721%.
Take `CS(=O)(=O)N1CCC(c2nnc3ccc(C(=O)NC4CCC4)cn23)C1` (centres undefined): the cytotoxicity at 70.5 h amounted to 12.6%.
For `NC(=O)COc1ccc(CNCc2ccc(F)cc2F)cc1`, the cytotoxicity at 70.5 h is -5.1%.
For `Cc1ccccc1CC(C)NCc1c(C)nn(C)c1N1CCOCC1` (centres undefined) the value was -0.684%; for `Cc1ccccc1CN1CC[C@H]2C[C@H](C(=O)N(C)C)O[C@H]2C1`, -12.7%; for `COc1ccc(CN2CCC3(CC2)NC(=O)CC3c2cnn(C)c2)cc1` (centres undefined), -8.08%.
Turning to `CC(=O)N1CCC2(CCCN2Cc2cnn(C)c2)CC1`, the cytotoxicity at 70.5 h is -10%.
Under `CCn1nc(C)cc1C(=O)N1C[C@H]2CCC[C@@]2(COc2ccccn2)C1` stands -7.77%.
For `Cc1cc(CN2C[C@@H]3COC[C@]3(CNC(=O)c3ccsc3)C2)no1` the value was -8.24%; for `O=C(C1CCOCC1)N1C[C@H]2CCC[C@@]2(COc2ccccn2)C1`, -11.3%.
Under `O=C(Nc1cnccn1)[C@@H]1C[C@H]2OCC[C@H]2N(Cc2ccsc2)C1` stands -7.42%.
In the case of `CN(C)C[C@]12COC[C@H]1CN(C(=O)Cc1ccc3c(c1)OCO3)C2`, the cytotoxicity at 70.5 h was -9.79%.
`Cn1cc(CN2CCCC23CCN(C(=O)c2ccccn2)CC3)cn1`: the cytotoxicity at 70.5 h stood at 18.2%.
Consider `Cn1cc(CN2CCCC23CCN(C(=O)c2ccncc2)CC3)cn1`, for which the cytotoxicity at 70.5 h is 20.3%.
Under `c1ccn(Cc2nnc3n2CCCN(Cc2ccoc2)C3)c1` stands 6.46%; under `O=C(N1CCCC1)N1CCC2(CCN(Cc3ccccn3)C2=O)C1` (centres undefined), 2.54%; under `CN1CCC(c2nnc3ccc(C(=O)NC4CCCC4)cn23)C1` (centres undefined), 15%.
For `O=C(Cc1ccccc1)N1CCCC2(COCCN(CC3CC3)C2)C1` (centres undefined) the value was -0.0192%.
On to `c1cnc(N2CCC3(CN(CC4CCOC4)C3)C2)nc1` (centres undefined), for which the cytotoxicity at 70.5 h came out at 24.1%.
For `COCC1CC2(CCN(Cc3ccco3)CC2)CN1C(C)C` (centres undefined) the value was 6.8%; for `O=C(NC[C@]12COC[C@H]1CN(Cc1cccnc1)C2)c1ccsc1`, 11.5%; for `O=C1CC(c2ccncc2)C2(CCN(Cc3ccc(F)cc3)CC2)N1` (centres undefined), -9.81%.
Under `CN(C)CCOCC1CN(Cc2ccoc2)Cc2nnn(C)c21` (centres undefined) stands -11.2%; under `Cn1nnc2c1C(COCc1ccccn1)CN(Cc1ccoc1)C2` (centres undefined), -12.1%; under `O=C1CC(c2ccncc2)C2(CCN(CCc3ccccc3)CC2)N1` (centres undefined), -6.87%.
Turning to `CO[C@@H]1CC[C@H]2[C@H]1OCCN2Cc1ccccn1`, the cytotoxicity at 70.5 h is 18.3%.
For `O=C1COC2(CCN(CC3CCOCC3)CC2)CN1Cc1ccccn1` the value was -0.458%.
Consider `CCN(C)c1ncnc2c1CCN(Cc1ccc(F)cc1)CC2`, for which the cytotoxicity at 70.5 h turned out to be 19.9%.
For the compound `Cc1nc(CN2CCO[C@H]3[C@@H](Oc4ccccn4)CC[C@@H]32)cs1`, the cytotoxicity at 70.5 h was found to be 18.6%.
Under `O=C(c1ccncc1)N1CCC2(CC1)CCN(Cc1ccccn1)C2=O` stands 15.2%; under `c1ccc(CO[C@@H]2CC[C@H]3[C@H]2OCCN3Cc2ccsc2)nc1`, 8.96%.
For `Cc1noc(C)c1CN1CCO[C@H]2CN(Cc3cncn3C)C[C@H]21` the value was 19%.
Under `Cc1noc(C)c1CN1CCO[C@H]2CN(Cc3ccc(F)cc3)C[C@H]21` stands 0.623%.
Regarding `c1cnc(N2CCC3(CCN(CC4CCOC4)CC3)CC2)nc1` (centres undefined), the cytotoxicity at 70.5 h is 1.98%.
For `COCC1CC2(CCN(Cc3ccncc3)CC2)CN1C(C)C` (centres undefined) the value was -7.56%; for `CCN(C)c1ncnc2c1CCN(Cc1ccncc1)CC2`, -0.527%; for `Cc1ccoc1C(=O)N1Cc2c(CN3CCCCC3)nn(C)c2C1`, 0.575%.
